Assay results taken from patent US20110135742A1, “CONTROLLED RELEASE ENCAPSULATED ANTI-BACTERIAL AND ANTI-INFLAMMATORY NANOPARTICLES” (The Regents of the University of California, priority 2006, published 2011).

Tests used:
[1] = recorded, background statement; cited from earlier work
[2] = test system: P. acnes; test: CFU assay against P. acnes; format: cell-based; conditions: FIG. 4
[3] = test system: IL-12p40; test: P. acnes stimulated IL-12p40 production by primary human monocytes; format: cell-based; conditions: primary human monocytes stimulated with P. acnes; dilutions 1, 10^-1, 10^-2; FIG. 5
[4] = test system: eukaryotic cells; test: MTT assay; format: cell-based; conditions: FIG. 6
[5] = test system: P. acnes; test: Scanning electron microscopy of P. acnes; format: cell-based; conditions: FIG. 7

Compound	success as acne medication [1]	killing of P. acnes, benzoyl peroxide un-encapsulated or nanoparticle encapsulated [2]	inhibition of IL-12p40 production [3]	toxicity to eukaryotic cells [4]	physical changes in the bacteria, compared with control [5]
CC1=C(/C=C/C(C)=C/C=C/C(C)=C\C(=O)O)C(C)(C)CCC1 [Isotretinoin]	80-90%				
O=C(OOC(=O)c1ccccc1)c1ccccc1 [benzoyl peroxide]		kills bacteria	inhibited	not toxic	destroy the bacteria and kill P. acnes
